Test results published in patent publication US20160297833A1, “THIENOPYRIMIDINES AS MKNK1 AND MKNK2 INHIBITORS” (BAYER PHARMA AKTIENGESELLSCHAFT, priority 2013, published 2016).

Biological target: T1, human full-length MKNK1 (Homo sapiens, UniProt Q9BUB5, T385D)
T1 construct: GST (N); purchased Carna Biosciences 02-145; host or cells: insect cells (baculovirus expression system)
Experiment: MKNK1 kinase high ATP assay (TR-FRET)
Type: biochemical
Settings: for IC50: Table 1, MKNK1 kinase high ATP assay, 2 mM ATP, read-out: MKNK1 IC50; for Activity-Ratio MKNK1: Table 2, ratio of the IC50-value of an R-enantiomer and its corresponding S-enantiomer
Experimental: MKNK1 Kinase High ATP Assay
MKNK1-inhibitory activity at high ATP of compounds of the present invention after their preincubation with MKNK1 was quantified employing the TR-FRET-based MKNK1 high ATP assay as described in the following paragraphs.
As substrate for the kinase reaction the biotinylated peptide biotin-Ahx-[…] (C-terminus in amide form) was used, which can be purchased e.g. from the company Biosyntan (Berlin-Buch, Germany).
For the assay 50 nL of a 100 fold concentrated solution of the test compound in DMSO was pipetted into a black low volume 384 well microtiter plate (Greiner Bio-One, Frickenhausen, Germany), 2 μL of a solution of MKNK1 in aqueous assay buffer [50 mM HEPES pH 7.5, 5 mM MgCl2, 1.0 mM dithiothreitol, 0.005% (v/v) Nonidet-P40 (Sigma)] was added and the mixture was incubated for 15 min at 22° C. to allow pre-binding of the test compounds to the enzyme before the start of the kinase reaction. Then the kinase reaction was started by the addition of 3 μL of a solution of adenosine-tri-phosphate (ATP, 3.3 mM=>final conc. in the 5 μL assay volume is 2 mM) and substrate (0.1 μM=>final conc. in the 5 μL assay volume is 0.06 μM) in assay buffer and the resulting mixture was incubated for a reaction time of 30 min at 22° C. The concentration of MKNK1 was adjusted depending of the activity of the enzyme lot and was chosen appropriate to have the assay in the linear range, typical concentrations were in the range of 0.003 μg/mL. The reaction was stopped by the addition of 5 μL of a solution of TR-FRET detection reagents (5 nM streptavidine-XL665 [Cisbio Bioassays, Codolet, France] and 1 nM anti-ribosomal protein S6 (pSer236)-antibody from Invitrogen [#44921G] and 1 nM LANCE EU-W1024 labeled ProteinG [Perkin-Elmer, product no. AD0071]) in an aqueous EDTA-solution (100 mM EDTA, 0.1% (w/v) bovine serum albumin in 50 mM HEPES pH 7.5).
The resulting mixture was incubated for 1 h at 22° C. to allow the formation of complex between the phosphorylated biotinylated peptide and the detection reagents. Subsequently the amount of phosphorylated substrate was evaluated by measurement of the resonance energy transfer from the Eu-chelate to the streptavidine-XL. Therefore, the fluorescence emissions at 620 nm and 665 nm after excitation at 350 nm were measured in a TR-FRET reader, e.g. a Rubystar (BMG Labtechnologies, Offenburg, Germany) or a Viewlux (Perkin-Elmer). The ratio of the emissions at 665 nm and at 622 nm was taken as the measure for the amount of phosphorylated substrate.

T1 sequence (Q9BUB5 1-424 isoform Q9BUB5-2 T344D): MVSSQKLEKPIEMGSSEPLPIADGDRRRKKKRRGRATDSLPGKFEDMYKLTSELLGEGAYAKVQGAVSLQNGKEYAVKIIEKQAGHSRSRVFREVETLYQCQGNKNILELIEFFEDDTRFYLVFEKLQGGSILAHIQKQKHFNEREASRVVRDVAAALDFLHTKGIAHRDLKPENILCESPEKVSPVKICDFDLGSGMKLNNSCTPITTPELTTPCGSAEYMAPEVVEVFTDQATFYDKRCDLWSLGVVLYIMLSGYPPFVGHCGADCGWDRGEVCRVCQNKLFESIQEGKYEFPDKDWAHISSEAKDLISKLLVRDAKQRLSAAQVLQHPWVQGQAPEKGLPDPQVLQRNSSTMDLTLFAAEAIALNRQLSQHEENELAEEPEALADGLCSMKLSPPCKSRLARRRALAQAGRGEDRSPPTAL

SMILES | IC50 [nM] | Activity-Ratio MKNK1
CCN(C)C(=O)[C@@H]1CCc2c(sc3ncnc(Nc4cc5cn[nH]c5cc4OC)c23)C1 [Example 25, (7R)—N-Ethyl-4-[(6-methoxy-1H-indazol-5-yl)amino]-N-methyl-5,6,7,8-tetrahydro[1]benzothieno[2,3-d]pyrimidine-7-carboxamide] | 8.3 | –
COc1cc2[nH]ncc2cc1Nc1ncnc2sc3c(c12)CC[C@H](C(=O)N(C)C(C)C)C3 [Example 26, (7S)-4-[(6-Methoxy-1H-indazol-5-yl)amino]-N-methyl-N-(propan-2-yl)-5,6,7,8-tetrahydro[1]benzothieno[2,3-d]pyrimidine-7-carboxamide] | 0.2 | 172.9
COc1cc2[nH]ncc2cc1Nc1ncnc2sc3c(c12)CC[C@@H](C(=O)N(C)C(C)C)C3 [Example 27, (7R)-4-[(6-Methoxy-1H-indazol-5-yl)amino]-N-methyl-N-(propan-2-yl)-5,6,7,8-tetrahydro[1]benzothieno[2,3-d]pyrimidine-7-carboxamide] | 38.9 | –
COc1cc2[nH]ncc2cc1Nc1ncnc2sc3c(c12)CC[C@H](C(=O)N1CCOCC1)C3 [Example 28, {(7S)-4-[(6-Methoxy-1H-indazol-5-yl)amino]-5,6,7,8-tetrahydro[1]benzothieno[2,3-d]pyrimidin-7-yl}(morpholin-4-yl)methanone] | 0.3 | 26.1
COc1cc2[nH]ncc2cc1Nc1ncnc2sc3c(c12)CC[C@@H](C(=O)N1CCOCC1)C3 [Example 29, {(7R)-4-[(6-Methoxy-1H-indazol-5-yl)amino]-5,6,7,8-tetrahydro[1]benzothieno[2,3-d]pyrimidin-7-yl}(morpholin-4-yl)methanone] | 8.7 | –
COc1cc2[nH]ncc2cc1Nc1ncnc2sc3c(c12)CC[C@H](C(=O)N1CCOC[C@@H]1C)C3 [Example 30, {(7S)-4-[(6-Methoxy-1H-indazol-5-yl)amino]-5,6,7,8-tetrahydro[1]benzothieno[2,3-d]pyrimidin-7-yl}[(3S)-3-methylmorpholin-4-yl]methanone] | 0.3 | –
COc1cc2[nH]ncc2cc1Nc1ncnc2sc3c(c12)CC[C@H](C(=O)N1CCOC[C@H]1C)C3 [Example 31, {(7S)-4-[(6-Methoxy-1H-indazol-5-yl)amino]-5,6,7,8-tetrahydro[1]benzothieno[2,3-d]pyrimidin-7-yl}[(3R)-3-methylmorpholin-4-yl]methanone] | 0.8 | –
COc1cc2[nH]ncc2cc1Nc1ncnc2sc3c(c12)CC[C@H](C(=O)N1CC2(COC2)C1)C3 [Example 32, {(7S)-4-[(6-Methoxy-1H-indazol-5-yl)amino]-5,6,7,8-tetrahydro[1]benzothieno[2,3-d]pyrimidin-7-yl}(2-oxa-6-azaspiro[3.3]hept-6-yl)methanone] | 1 | –
COc1cc2[nH]ncc2cc1Nc1ncnc2sc3c(c12)CC[C@H](C(=O)N1C[C@@H]2C[C@H]1CO2)C3 [Example 33, {(7S)-4-[(6-Methoxy-1H-indazol-5-yl)amino]-5,6,7,8-tetrahydro[1]benzothieno[2,3-d]pyrimidin-7-yl}[(1S,4S)-2-oxa-5-azabicyclo[2.2.1]hept-5-yl]methanone] | 1.5 | –
COc1cc2[nH]ncc2cc1Nc1ncnc2sc3c(c12)CC[C@H](C(=O)N1C[C@H]2C[C@@H]1CO2)C3 [Example 34, {(7S)-4-[(6-Methoxy-1H-indazol-5-yl)amino]-5,6,7,8-tetrahydro[1]benzothieno[2,3-d]pyrimidin-7-yl}[(1R,4R)-2-oxa-5-azabicyclo[2.2.1]hept-5-yl]methanone] | 0.5 | –
COc1cc2[nH]ncc2cc1Nc1ncnc2sc3c(c12)CC[C@H](C(=O)N1CC(C#N)C1)C3 [Example 35, 1-({(7S)-4-[(6-Methoxy-1H-indazol-5-yl)amino]-5,6,7,8-tetrahydro[1]benzothieno[2,3-d]pyrimidin-7-yl}carbonyl)azetidine-3-carbonitrile] | 0.7 | –
COc1cc2[nH]ncc2cc1Nc1ncnc2sc3c(c12)CC[C@H](C(=O)N1CC(C)(O)C1)C3 [Example 36, (3-hydroxy-3-Methylazetidin-1-yl){(7S)-4-[(6-methoxy-1H-indazol-5-yl)amino]-5,6,7,8-tetrahydro[1]benzothieno[2,3-d]pyrimidin-7-yl}methanone] | 0.5 | –

Other lines, results leading:

IC50 [nM] | Activity-Ratio MKNK1 | SMILES
0.3 | – | COc1cc2[nH]ncc2cc1Nc1ncnc2sc3c(c12)CC[C@H](C(=O)N(CCO)C1COC1)C3 [Example 37, (7S)—N-(2-Hydroxyethyl)-4-[(6-methoxy-1H-indazol-5-yl)amino]-N-(oxetan-3-yl)-5,6,7,8-tetrahydro[1]benzothieno[2,3-d]pyrimidine-7-carboxamide]
0.3 | 28.1 | COc1cc2[nH]ncc2cc1Nc1ncnc2sc3c(c12)CC[C@H](C(=O)N(C)CCO)C3 [Example 38, (7S)—N-(2-Hydroxyethyl)-4-[(6-methoxy-1H-indazol-5-yl)amino]-N-methyl-5,6,7,8-tetrahydro[1]benzothieno[2,3-d]pyrimidine-7-carboxamide]
9.4 | – | COc1cc2[nH]ncc2cc1Nc1ncnc2sc3c(c12)CC[C@@H](C(=O)N(C)CCO)C3 [Example 39, (7R)—N-(2-Hydroxyethyl)-4-[(6-methoxy-1H-indazol-5-yl)amino]-N-methyl-5,6,7,8-tetrahydro[1]benzothieno[2,3-d]pyrimidine-7-carboxamide]
0.2 | 45.9 | CCN(CCO)C(=O)[C@H]1CCc2c(sc3ncnc(Nc4cc5cn[nH]c5cc4OC)c23)C1 [Example 40, (7S)—N-Ethyl-N-(2-hydroxyethyl)-4-[(6-methoxy-1H-indazol-5-yl)amino]-5,6,7,8-tetrahydro[1]benzothieno[2,3-d]pyrimidine-7-carboxamide]
10.5 | – | CCN(CCO)C(=O)[C@@H]1CCc2c(sc3ncnc(Nc4cc5cn[nH]c5cc4OC)c23)C1 [Example 41, (7R)—N-Ethyl-N-(2-hydroxyethyl)-4-[(6-methoxy-1H-indazol-5-yl)amino]-5,6,7,8-tetrahydro[1]benzothieno[2,3-d]pyrimidine-7-carboxamide]
0.3 | 33.2 | COCCN(CCO)C(=O)[C@H]1CCc2c(sc3ncnc(Nc4cc5cn[nH]c5cc4OC)c23)C1 [Example 42, (7S)—N-(2-Hydroxyethyl)-N-(2-methoxyethyl)-4-[(6-methoxy-1H-indazol-5-yl)amino]-5,6,7,8-tetrahydro[1]benzothieno[2,3-d]pyrimidine-7-carboxamide]
8.9 | – | COCCN(CCO)C(=O)[C@@H]1CCc2c(sc3ncnc(Nc4cc5cn[nH]c5cc4OC)c23)C1 [Example 43, (7R)—N-(2-Hydroxyethyl)-N-(2-methoxyethyl)-4-[(6-methoxy-1H-indazol-5-yl)amino]-5,6,7,8-tetrahydro[1]benzothieno[2,3-d]pyrimidine-7-carboxamide]
0.2 | – | COc1cc2[nH]ncc2cc1Nc1ncnc2sc3c(c12)CC[C@H](C(=O)N1CC(N(C)C)C1)C3 [Example 44, [3-(Dimethylamino)azetidin-1-yl]{(7S)-4-[(6-methoxy-1H-indazol-5-yl)amino]-5,6,7,8-tetrahydro[1]benzothieno[2,3-d]pyrimidin-7-yl}methanone]
0.2 | – | COc1cc2[nH]ncc2cc1Nc1ncnc2sc3c(c12)CC[C@H](C(=O)N1CC[C@H](N(C)C)C1)C3 [Example 45, [(3S)-3-(Dimethylamino)pyrrolidin-1-yl]{(7S)-4-[(6-methoxy-1H-indazol-5-yl)amino]-5,6,7,8-tetrahydro[1]benzothieno[2,3-d]pyrimidin-7-yl}methanone]
0.1 | – | COc1cc2[nH]ncc2cc1Nc1ncnc2sc3c(c12)CC[C@H](C(=O)N1CCC(N(C)C)CC1)C3 [Example 46, [4-(Dimethylamino)piperidin-1-yl]{(7S)-4-[(6-methoxy-1H-indazol-5-yl)amino]-5,6,7,8-tetrahydro[1]benzothieno[2,3-d]pyrimidin-7-yl}methanone]
0.5 | – | COc1cc2[nH]ncc2cc1Nc1ncnc2sc3c(c12)CC[C@H](C(=O)N1CCC(N(C)CCN(C)C)CC1)C3 [Example 47, (4-{[2-(Dimethylamino)ethyl](methyl)amino}piperidin-1-yl){(7S)-4-[(6-methoxy-1H-indazol-5-yl)amino]-5,6,7,8-tetrahydro[1]benzothieno[2,3-d]pyrimidin-7-yl}methanone]
